Common to all, as to assay type: cell-based, mice
Data set [1] deals with macrophage RAW 267.4. Nature of the data set: MTT test of toxicity to cells (cell survival rate). On the procedure: The invention chooses the macrophage RAW 267.4 of mice for the discussion about the production of NO and prostaglandin-E2 (PGE2). For the culture of RAW 267.4 cell, firstly inoculate RAW 267.4 macrophages growing in the culture plate (75 cm^2) in 96-well plate in the density of 2×10^5 cells/well and then culture them in the incubator (37° C., 5% CO2). DMEM culture medium is selected according to the recommendation of ATCC (American TypeCulture Collection), with 10% fetal bovine serum (FBS), penicillin (100 units/ml) and streptomycin ([…]) added. In addition, the familiar MTT is utilized to test the toxicity of Antrocamphin A to cells. Said MTT is a method for detecting cell survival rate or cell proliferation in biology on principle that succinate dehydrogenase in the mitochondria of live cell metabolizes tetrazolium of MTT to be blue products. After DMSO is added to resolve the blue metabolized products accumulated in cells, the amount of blue metabolized products is measured by spectrometer to indirectly calculate the number of live cells.
(In general: Tetrazolium dyes change colour on reduction, which living cells bring about.)

The test system of data set [2] is macrophage RAW 267.4. Nature of the data set: LPS-elicited prostaglandin-E2 (PGE2) production in macrophage RAW 267.4, ELISA. Also noted: unit not given here. Conditions: RAW 267.4, aspirin 3 hours, then LPS 1 g/ml 16 hours. The protocol:
(§1) The invention chooses the macrophage RAW 267.4 of mice for the discussion about the production of NO and prostaglandin-E2 (PGE2). For the culture of RAW 267.4 cell, firstly inoculate RAW 267.4 macrophages growing in the culture plate (75 cm^2) in 96-well plate in the density of 2×10^5 cells/well and then culture them in the incubator (37° C., 5% CO2). DMEM culture medium is selected according to the recommendation of ATCC (American TypeCulture Collection), with 10% fetal bovine serum (FBS), penicillin (100 units/ml) and streptomycin ([…]) added.
In the experiment for measuring the production of prostaglandin-E2 (PGE2), firstly RAW 267.4 cells are cultured as Experiment I states and […] aspirin is added in the culture medium for 3 hours so that the endogenous COX-1 is deactivated. Then, they are handled for 1 hour in antrocamphin A (1, 5, 10, 20 g/ml) or curcumin (10 g/ml) and processed for 16 hours with LPS (1 g/ml). Finally, supernatant liquid in the cell culture is measured by ELISA kit (Cayman Chemicals) so as to get the production of prostaglandin-E2 (PGE2) in endogenous arachidonic acid.
A general note: ELISA stands for enzyme-linked immunosorbent assay.

The test system of data set [3] is macrophage RAW 267.4. Nature of the data set: LPS-elicited NO production in macrophage RAW 267.4, nitrite by Griess reaction. Also on record: unit not given here. Particulars: then LPS 1 g/ml 24 hours. On the procedure: as §1
Firstly, RAW 267.4 is cultured as detailed in Experiment I and divided into three groups: group 1 (ACE), group 2 (ACE-EA) and group 3 (ACE-water). For each group, add said ACE, ACE-EA and ACE-water of different concentrations (1, 10, 25, 50 g/ml) in the culture medium, add LPS to elicit RAW267.4 producing NO, and measure the content of nitrite after 24 hours by Griess reaction to indirectly measure the amount of NO.
NO activity inhibition tests are conducted on RAW 267.4 macrophages (see reference in Cell culture, Experiment I) to 17 fractions respectively. Firstly, divide RAW 267.4 cells into 17 groups, add 17 fractions (50 g/ml) in the culture medium, and then add LPS (1 g/ml) to elicit the production of NO. 24 hours later, Griess reaction is conducted to measure the content of nitrites and thus indirectly measuring the production of NO and calculating the inhibition rate of NO.
In the experiment of production of NO, firstly RAW 267.4 cells are cultured as Experiment I states, handled for 1 hour in antrocamphin A (1, 5, 10, 20 g/ml) or curcumin (10 g/ml), and then processed for 24 hours with LPS (1 g/ml). Then, Griess reaction is conducted to measure the content of nitrites and thus indirectly obtaining the production of NO.
(The Griess reaction detects nitrite, a stable product of nitric oxide.)

Data set [4] deals with mRNA of iNOS. Nature of the data set: iNOS mRNA expression in LPS-treated RAW 267.4, RT-PCR. Conditions: RAW 267.4, LPS; dose-dependent, higher dose; FIG. 4A. On the procedure: (§2) Trizol reagent (Invitrogen Life Technologies, Carlsbad, Calif., USA) is used to extract the total RNA of macrophages. mRNA of iNOS, COX-2 and G3PDH is reversely transcribed to be cDNA by the RT-PCR, and then the expression of iNOS, COX-2 and G3PDH are quantified with the real time-PCR (Applied Biosystems).
(§3) Said real time-PCR detects the PCR products by DNA binding SYBR Green. The thermal cycles are: 95° C., 5 min, 1 min for 40 cycles at 95° C., 45 s for 55° C., and 30 s for 72° C. The sequence of primers is: iNOS forward 5′-TCC TAC ACC ACA CCA AAC-3′; iNOS reverse 5′-CTC CAA TCT CTG CCT ATC C-3′; COX-2 forward 5′-CCT CTG CGA TGC TCT TCC-3′, COX-2 reverse 5′-TCACACTTATACTGGTCAAATCC-3′, G3PDH forward 5′-TCA ACG GCA CAG TCA AGG-3′; G3PDH reverse 5′-ACT CCA CGA CAT ACT CAG C-3′. G3PDH are housekeeping genes which are genes with stable and large number of expression in cells and are used to standardize the expression of iNOS and COX-2 in the experiment.
(§4) In addition, total RNA and total protein are extracted from each group of macrophages. According to the paragraphs of RT-PCR and western blot analysis in Experiment I, the expression of iNOS and COX-2 are evaluated from the perspectives of mRNA and protein.

Data set [5] deals with mRNA of COX-2. Nature of the data set: COX-2 mRNA expression in LPS-treated RAW 267.4, RT-PCR. Particulars: RAW 267.4, LPS; dose-dependent, higher dose; FIG. 4B. The protocol:
as §2, §3, §4

Data set [6] has as its system iNOS. Nature of the data set: iNOS protein expression in LPS-treated RAW 267.4, western blot. Particulars: RAW 267.4, LPS; dose-dependent, especially at […]; FIG. 5A. The protocol:
(§5) After getting the total protein of macrophages, add the equal amount of protein in 5˜7% SDS-PAGE, resolve for 90 m at 300 mA, blotting (100V, 1 hour) proteins resolved in different sizes to polyvinylidene difluoride (PVDF, Immobilon, Millipore, Bedford, Mass.), and then put PVDF in the blocking buffer (10% w/v skim milk powder in TBST) for 1 hour.
(§6) Then, dip PVDF in the anti-iNOS solution (1:1000, Cayman Chemicals) and clean twice with 0.1% TBST buffer (TBS buffer containing 0.1% Tween 20) to clear the non-specific bonded antibody and antigen.
(§7) Next, dip PVDF in the anti-rabbit secondary antibodies solution with horseradish peroxidase, detect the fluorescence density of each group by enhanced chemiluminescene regents (ECL, Pierce), and take the expression of β-actin as the reference group.
as §4

Data set [7] relates to COX-2. Put plainly: COX-2 protein expression in LPS-treated RAW 267.4, western blot. Conditions: RAW 267.4, LPS; dose-dependent, especially at 20 µg/ml; FIG. 5B. The protocol:
as §5, §6, §7, §4

On to `COc1cc(/C=C/C(=O)CC(=O)/C=C/c2ccc(O)c(OC)c2)ccc1O` [curcumin, reference compound], for which the “Cell survival rate (%)” value in data set [1] (mouse, 10 g/ml) stood at 76 ± 4.6%. Further, the “Production of prostaglandin-E2 (PGE2)” value in data set [2] (10 g/ml for 1 hour) was determined as 6.82 ± 5.2.
Turning to `C=C(C)C#Cc1c(OC)cc(OC)c(OC)c1C` [antrocamphin A, Antrocamphin A], the “Production of NO (M)” value in data set [3] (RAW 267.4, 1 g/ml for 1 hour) worked out at 18 ± 0.36; in data set [3] (RAW 267.4, 5 g/ml for 1 hour), 14.68 ± 0.54; in data set [3] (RAW 267.4, 10 g/ml for 1 hour), 11.14 ± 0.18; in data set [3] (RAW 267.4, 20 g/ml for 1 hour), 7.27 ± 0.18. Moreover, the “Cell survival rate (%)” value is given as 93 ± 4.13% in data set [1] (MTT, RAW 267.4, 1 g/ml, with LPS); 92 ± 5.49% in data set [1] (MTT, RAW 267.4, 5 g/ml, with LPS); 89 ± 3.22% in data set [1] (MTT, RAW 267.4, 10 g/ml, with LPS); 79 ± 3.54% in data set [1] (MTT, RAW 267.4, 20 g/ml, with LPS). Besides, the “Production of prostaglandin-E2 (PGE2)” value is given as 411.5 ± 20.92 in data set [2] (1 g/ml for 1 hour), 360.9 ± 23.95 in data set [2] (5 g/ml for 1 hour), 237.96 ± 83.85 in data set [2] (10 g/ml for 1 hour) and 24.62 ± 15.36 in data set [2] (20 g/ml for 1 hour). Moreover, the “expression of mRNA of iNOS” value in data set [4] was “effectively reduce the amount of mRNA of iNOS and COX-2”. Also, the “expression of mRNA of COX-2” value in data set [5] is “effectively reduce the amount of mRNA of iNOS and COX-2”. Besides, the “expression of iNOS (protein)” value in data set [6] was “effectively reduce the expression of iNOS and COX-2”. The “expression of COX-2 (protein)” value in data set [7] is “effectively reduce the expression of iNOS and COX-2”.

The values above are taken from patent US20110206720A1, “ANTI-INFLAMMATORY USAGE OF ANTRODIA CINNAMOMEA FRUIT BODY DERIVATIVES” (Taiwan Leader Biotech Corp, priority 2010, published 2011).
